In PubChem BioAssay AID248 (DTP/NCI, 2004):
Where “and” joins values, the source holds several entries; their conditions need not be identical. Equal values may be shown once. Toxic doses and inconclusive results are not listed.

Test system: L1210 leukemia ip in BDF1 mice, survival T/C
Test: NCI In Vivo Anticancer Drug Screen. Data for tumor model L1210 Leukemia (intraperitoneal) in B6D2F1 (BDF1) mice
Conditions: endpoint: mean survival time, higher = longer survival
In short: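 Antitumor effect is assessed in tumor-bearing animals. Survival in the compound arm is compared with a vehicle-dosed control arm and expressed as their quotient.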

[1] = dose: 100.0 mg/kg/injection, schedule: Q01DX001 (ip), vehicle: Klucel (hydroxypropylcellulose) (HPC)
[2] = dose: 100.0 mg/kg/injection, schedule: Q01DX009 (ip), vehicle: Klucel (hydroxypropylcellulose) (HPC)
[3] = dose: 100.0 mg/kg/injection, schedule: Q04DX003 (ip), vehicle: Klucel (hydroxypropylcellulose) (HPC)
[4] = dose: 200.0 mg/kg/injection, schedule: Q01DX009 (ip), vehicle: Klucel (hydroxypropylcellulose) (HPC)
[5] = dose: 200.0 mg/kg/injection, schedule: Q04DX003 (ip), vehicle: Klucel (hydroxypropylcellulose) (HPC)
[6] = dose: 400.0 mg/kg/injection, schedule: Q01DX009 (ip), vehicle: Klucel (hydroxypropylcellulose) (HPC)
[7] = dose: 400.0 mg/kg/injection, schedule: Q04DX003 (ip), vehicle: Klucel (hydroxypropylcellulose) (HPC)

`CN(C)N=Nc1ccc2[nH]ncc2c1` was tested, and the T/C (dose: 14.5 mg/kg/injection, schedule: Q01DX009 (ip), vehicle: Klucel (hydroxypropylcellulose) (HPC)) was 123 % of control, the T/C (dose: 16.5 mg/kg/injection, schedule: Q04DX003 (ip), vehicle: Klucel (hydroxypropylcellulose) (HPC)) was 100 % of control and the T/C (dose: 25.0 mg/kg/injection, schedule: Q01DX009 (ip), vehicle: Klucel (hydroxypropylcellulose) (HPC)) was 114 % of control. For the same compound, the T/C (dose: 25.0 mg/kg/injection, schedule: Q04DX003 (ip), vehicle: Klucel (hydroxypropylcellulose) (HPC)) was 107 % of control, the T/C (dose: 33.0 mg/kg/injection, schedule: Q01DX009 (ip), vehicle: Klucel (hydroxypropylcellulose) (HPC)) was 152 % of control and the T/C (dose: 37.5 mg/kg/injection, schedule: Q04DX003 (ip), vehicle: Klucel (hydroxypropylcellulose) (HPC)) was 117 % of control. For the same compound, the T/C (dose: 50.0 mg/kg/injection, schedule: Q01DX009 (ip), vehicle: Klucel (hydroxypropylcellulose) (HPC)) was 119 % of control and the T/C [1] was 111 % of control.

In the case of `CCCCNC(=O)Nc1cc(C)cc(C)n1`, the T/C [2] is reported as 100 % of control, the T/C [3] is reported as 94 % of control and the T/C [4] is reported as 104 % of control. The T/C [5] was 102 % of control, the T/C [6] was 91 % of control and the T/C [7] was 98 % of control.

For `COc1ccc(-c2nc3ncnc(N)c3[nH]2)cc1`, the T/C (dose: 12.5 mg/kg/injection, schedule: Q01DX001 (ip), vehicle: saline with Tween-80) was 102 % of control, the T/C (dose: 25.0 mg/kg/injection, schedule: Q01DX001 (ip), vehicle: saline with Tween-80) was 109 % of control and the T/C (dose: 50.0 mg/kg/injection, schedule: Q01DX001 (ip), vehicle: saline with Tween-80) was 106 % of control.

With `Clc1ccc(SCC#CCOc2ccc(Cl)cc2Cl)cc1` the T/C [1] was 89 % of control, the T/C (dose: 200.0 mg/kg/injection, schedule: Q01DX001 (ip), vehicle: Klucel (hydroxypropylcellulose) (HPC)) was 95 % of control and the T/C (dose: 400.0 mg/kg/injection, schedule: Q01DX001 (ip), vehicle: Klucel (hydroxypropylcellulose) (HPC)) was 97 % of control.

In the case of `Cc1ccc(C(=O)C[n+]2cccc3ccccc32)c(C)c1`, the T/C (dose: 25.0 mg/kg/injection, schedule: Q04DX002 (ip), vehicle: saline with Tween-80) is reported as 93 % of control.

`O=C(Nc1ccc(NC(=O)Nc2cccc(C3=NCCN3)c2)cc1)Nc1cccc(C2=NCCN2)c1` was tested, and the T/C (dose: 3.5 mg/kg/injection, schedule: Q#A X Z (ip), vehicle: saline) was 106 % of control, the T/C (dose: 7.0 mg/kg/injection, schedule: Q01DX Z (ip), vehicle: saline) was 115 % of control and the T/C (dose: 7.5 mg/kg/injection, schedule: Q01DX006 (iv), vehicle: saline) was 98 % of control. The T/C (dose: 7.5 mg/kg/injection, schedule: Q#A X Z (ip), vehicle: saline) was 117 % of control, the T/C (dose: 15.0 mg/kg/injection, schedule: Q01DX006 (iv), vehicle: saline) was 107 % of control and the T/C (dose: 15.0 mg/kg/injection, schedule: Q01DX Z (ip), vehicle: saline) was 111 % of control. For the same compound, the T/C (dose: 23.0 mg/kg/injection, schedule: Q03DX Z (ip), vehicle: saline) was 116 % of control, the T/C (dose: 30.0 mg/kg/injection, schedule: Q01DX006 (iv), vehicle: saline) was 116 % of control and the T/C (dose: 30.0 mg/kg/injection, schedule: Q01DX Z (sc), vehicle: carboxymethylcellulose (CMC)) was 102 % of control. For the same compound, the T/C (dose: 47.0 mg/kg/injection, schedule: Q03DX Z (ip), vehicle: saline) was 119 % of control, the T/C (dose: 55.0 mg/kg/injection, schedule: Q07DX Z (ip), vehicle: saline) was 121 % of control and the T/C (dose: 60.0 mg/kg/injection, schedule: Q01DX010 (ip), vehicle: saline) was 151 % of control and 153 % of control. The T/C (dose: 60.0 mg/kg/injection, schedule: Q01DX Z (im), vehicle: saline) was 110 % of control, the T/C (dose: 60.0 mg/kg/injection, schedule: Q01DX Z (ip), vehicle: carboxymethylcellulose (CMC)) was 286 % of control and the T/C (dose: 60.0 mg/kg/injection, schedule: Q01DX Z (sc), vehicle: carboxymethylcellulose (CMC)) was 110 % of control. For the same compound, the T/C (dose: 94.0 mg/kg/injection, schedule: Q03DX Z (ip), vehicle: saline) was 121 % of control, the T/C (dose: 120.0 mg/kg/injection, schedule: Q01DX010 (ip), vehicle: saline) was 182 % of control and 215 % of control and the T/C (dose: 120.0 mg/kg/injection, schedule: Q01DX Z (im), vehicle: saline) was 100 % of control. For the same compound, the T/C (dose: 120.0 mg/kg/injection, schedule: Q01DX Z (ip), vehicle: carboxymethylcellulose (CMC)) was 151 % of control, the T/C (dose: 120.0 mg/kg/injection, schedule: Q01DX Z (sc), vehicle: carboxymethylcellulose (CMC)) was 104 % of control and the T/C (dose: 148.0 mg/kg/injection, schedule: Q01DX Z (ip), vehicle: carboxymethylcellulose (CMC)) was 208 % of control. For the same compound, the T/C (dose: 219.0 mg/kg/injection, schedule: Q07DX Z (ip), vehicle: saline) was 154 % of control, the T/C (dose: 222.0 mg/kg/injection, schedule: Q01DX Z (ip), vehicle: carboxymethylcellulose (CMC)) was 298 % of control and the T/C (dose: 240.0 mg/kg/injection, schedule: Q01DX010 (ip), vehicle: saline) was 236 % of control and 263 % of control. The T/C (dose: 240.0 mg/kg/injection, schedule: Q01DX Z (ip), vehicle: carboxymethylcellulose (CMC)) was 318 % of control, the T/C (dose: 333.0 mg/kg/injection, schedule: Q01DX Z (ip), vehicle: carboxymethylcellulose (CMC)) was 353 % of control and the T/C (dose: 480.0 mg/kg/injection, schedule: Q01DX010 (ip), vehicle: saline) was 112 % of control and 268 % of control. For the same compound, the T/C (dose: 480.0 mg/kg/injection, schedule: Q01DX Z (im), vehicle: saline) was 184 % of control, the T/C (dose: 480.0 mg/kg/injection, schedule: Q01DX Z (ip), vehicle: carboxymethylcellulose (CMC)) was 102 % of control and 242 % of control and the T/C (dose: 500.0 mg/kg/injection, schedule: Q01DX Z (ip), vehicle: carboxymethylcellulose (CMC)) was 328 % of control.

With `OCC1(O)CCC1` the T/C (dose: 100.0 mg/kg/injection, schedule: Q01DX009 (ip), vehicle: saline) was 102 % of control, the T/C (dose: 100.0 mg/kg/injection, schedule: Q04DX003 (ip), vehicle: saline) was 94 % of control and the T/C (dose: 200.0 mg/kg/injection, schedule: Q01DX009 (ip), vehicle: saline) was 99 % of control. For the same compound, the T/C (dose: 200.0 mg/kg/injection, schedule: Q04DX003 (ip), vehicle: saline) was 103 % of control, the T/C (dose: 400.0 mg/kg/injection, schedule: Q01DX009 (ip), vehicle: saline) was 107 % of control and the T/C (dose: 400.0 mg/kg/injection, schedule: Q04DX003 (ip), vehicle: saline) was 96 % of control.

`OCC1(Br)CCC(Br)(CO)CC1` (stereo not drawn) was tested, and the T/C (dose: 100.0 mg/kg/injection, schedule: Q04DX002 (ip), vehicle: Klucel (hydroxypropylcellulose) (HPC)) was 103 % of control, the T/C (dose: 100.0 mg/kg/injection, schedule: Q04DX003 (ip), vehicle: saline with Tween-80) was 104 % of control and the T/C (dose: 200.0 mg/kg/injection, schedule: Q04DX002 (ip), vehicle: Klucel (hydroxypropylcellulose) (HPC)) was 111 % of control. The T/C (dose: 200.0 mg/kg/injection, schedule: Q04DX003 (ip), vehicle: saline with Tween-80) was 98 % of control, the T/C (dose: 400.0 mg/kg/injection, schedule: Q04DX002 (ip), vehicle: Klucel (hydroxypropylcellulose) (HPC)) was 107 % of control and the T/C (dose: 400.0 mg/kg/injection, schedule: Q04DX003 (ip), vehicle: saline with Tween-80) was 96 % of control.

With `CC1(CBr)Oc2ccccc2O1` the T/C [2] was 115 % of control, the T/C [4] was 97 % of control and the T/C [6] was 101 % of control.

For `O=C(O)CC(c1ccccc1)C(CC(=O)O)c1ccccc1` (stereo not drawn), the T/C [3] was 91 % of control, the T/C [5] was 95 % of control and the T/C [7] was 96 % of control.

In the case of `O=CCSC(=S)NNc1ccccc1`, the T/C [2] is reported as 106 % of control, the T/C [3] is reported as 88 % of control and the T/C [4] is reported as 95 % of control. For the same compound, the T/C [5] was 91 % of control and the T/C [7] was 96 % of control.

For `O=C(N/N=C/c1ccc(O)cc1O)C(O)(c1ccccc1)c1ccccc1`, the T/C (dose: 100.0 mg/kg/injection, schedule: Q01DX001 (ip), vehicle: carboxymethylcellulose (CMC)) was 106 % of control, the T/C (dose: 200.0 mg/kg/injection, schedule: Q01DX001 (ip), vehicle: carboxymethylcellulose (CMC)) was 106 % of control and the T/C (dose: 400.0 mg/kg/injection, schedule: Q01DX001 (ip), vehicle: carboxymethylcellulose (CMC)) was 108 % of control.

`COc1ccc(CCN2COc3ccc4ccc(=O)oc4c3C2)cc1OC` was tested, and the T/C (dose: 100.0 mg/kg/injection, schedule: Q04DX003 (ip), vehicle: saline sonified) was 111 % of control, the T/C (dose: 200.0 mg/kg/injection, schedule: Q04DX003 (ip), vehicle: saline sonified) was 111 % of control and the T/C (dose: 400.0 mg/kg/injection, schedule: Q04DX003 (ip), vehicle: saline sonified) was 106 % of control.

`CCO/C=N/N(C)c1n[n+]([O-])ccc1C` was tested, and the T/C (dose: 100.0 mg/kg/injection, schedule: Q04DX002 (ip), vehicle: saline) was 110 % of control, the T/C (dose: 200.0 mg/kg/injection, schedule: Q04DX002 (ip), vehicle: saline) was 104 % of control and the T/C (dose: 400.0 mg/kg/injection, schedule: Q04DX002 (ip), vehicle: saline) was 101 % of control.
